Here are results for 23 compounds from US11236087B2, “Highly active pyrazolo-piperidine substituted indole-2-carboxamides active against the hepatitis B virus (HBV)” (AiCuris GmbH & Co. KG, priority 2017, dated 2022).

One data set addresses T1, HBV core protein (UniProt P03146).
T1 construct: fused on or other part: BODIPY-FL maleimide label on the C-terminal Cys150
Description: Biochemical capsid assembly assay (fluorescence quenching). Also on record: species or system hepatitis B virus. The settings on record: read-out: Assembly Activity (IC50); BODIPY-FL labelled core protein, 300 μM NaCl, read 6 min after start. A digest of the protocol: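 Assembly-induced fluorescence quenching (477/525 nm) was measured 6 min after NaCl addition ([…]), against 2.5 M and 0 M NaCl controls. The labelled C150 core dimer (truncated at 149) at 1.0-2.0 μM in HEPES pH 7.5 was tested with eight half-log compound dilutions, top 100, 31.6 or 10 μM. EC50 was obtained by non-linear fit from triplicates run three times.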

The test system of the next data set is HBV. Description: Determination of HBV DNA from the supernatants of HepAD38 cells (anti-HBV activity). The format is cell-based, hepatitis B virus. The settings on record: Hepatitis B virus, 144 h; HBV DNA in HepAD38 supernatant, day 6, qPCR; read-out: Cell Activity (EC50). The procedure, abridged: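 Supernatant viral DNA was measured by LightCycler qPCR, calibrated with pCH-9/3091 plasmid, 6 days after tetracycline-free HepAD38 cultures received half-log serial compound dilutions; untreated and tetracycline-treated cells served as controls; EC50 was fitted by non-linear regression.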
(Quantitative PCR measures a nucleic acid by following its amplification.)

The nature of data set [1]: Cell viability assay (AlamarBlue) in HepAD38 cells. The settings on record: human. (Resazurin is reduced to fluorescent resorufin, in cell work by metabolically active cells.)

T1 sequence (P03146 whole entry, looked up, the tested form may be a part): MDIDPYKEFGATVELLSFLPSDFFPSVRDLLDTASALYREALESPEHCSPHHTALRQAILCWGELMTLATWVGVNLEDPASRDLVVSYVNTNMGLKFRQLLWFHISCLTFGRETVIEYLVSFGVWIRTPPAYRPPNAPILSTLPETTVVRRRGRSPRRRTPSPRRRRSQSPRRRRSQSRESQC

In general, IC50 refers to the concentration that gives 50% inhibition. The term EC50 denotes the midpoint of the concentration-response curve. The CC50 is the concentration giving 50% cytotoxicity. Read a high CC50 as lower toxicity to the cells. Consider `CN(OCCO)C(=O)c1n[nH]c2c1CN(C(=O)c1cc3c(Cl)cccc3[nH]1)CC2` [Example 196, 5-(4-chloro-1H-indole-2-carbonyl)-N-(2-hydroxyethoxy)-N-methyl-1H,4H,5H,6H,7H-pyrazolo[4,3-c]pyridine-3-carboxamide], for which the IC50 on HBV core protein is less than 5 µM. For the same compound, the EC50 in the data set on HBV was less than 1 µM. Moreover, in data set [1], the CC50 at 6 days is more than 10 µM.
In the case of `Cc1cccc2[nH]c(C(=O)N3CCc4[nH]nc(C(=O)N(C)OCCO)c4C3)cc12` [Example 197, N-(2-hydroxyethoxy)-N-methyl-5-(4-methyl-1H-indole-2-carbonyl)-1H,4H,5H,6H,7H-pyrazolo[4,3-c]pyridine-3-carboxamide], on HBV core protein, the IC50 was less than 5 µM. In addition, in the data set on HBV, the EC50 is less than 1 µM. In data set [1], this compound yielded a CC50 at 6 days of more than 10 µM.
`CN(OCCO)C(=O)c1n[nH]c2c1CN(C(=O)c1cc3ccccc3[nH]1)CC2` [Example 198, N-(2-hydroxyethoxy)-5-(1H-indole-2-carbonyl)-N-methyl-1H,4H,5H,6H,7H-pyrazolo[4,3-c]pyridine-3-carboxamide]: at HBV core protein, the IC50 is less than 5 µM. Further, in the data set on HBV, the EC50 is less than 1 µM. Besides, the CC50 at 6 days in data set [1] is more than 10 µM.
Turning to `CN(C(=O)c1n[nH]c2c1CN(C(=O)c1cc3ccccc3[nH]1)CC2)C1CCOCC1` [Example 199, 5-(1H-indole-2-carbonyl)-N-methyl-N-(oxan-4-yl)-1H,4H,5H,6H,7H-pyrazolo[4,3-c]pyridine-3-carboxamide], at HBV core protein, the IC50 was less than 100 µM. Moreover, the EC50 with HBV fell in the range of 1 to 25 µM. In data set [1], this compound returned a CC50 at 6 days of more than 10 µM.
For `[2H]C([2H])([2H])N(C(=O)c1n[nH]c2c1CN(C(=O)c1cc3ccccc3[nH]1)CC2)C1(COC)CC1` [Example 201, 5-(1H-indole-2-carbonyl)-N-[1-(methoxymethyl)cyclopropyl]-N-(2H3)methyl-1H,4H,5H,6H,7H-pyrazolo[4,3-c]pyridine-3-carboxamide], in that order: less than 5 µM, less than 1 µM and more than 10 µM.
On the same counts, the results for `COCC1(NC(=O)c2n[nH]c3c2CN(C(=O)c2cc4ccccc4[nH]2)CC3)CC1` [Example 202, 5-(1H-indole-2-carbonyl)-N-[1-(methoxymethyl)cyclopropyl]-1H,4H,5H,6H,7H-pyrazolo[4,3-c]pyridine-3-carboxamide] are less than 5 µM, less than 1 µM and more than 10 µM.
On the same counts, the results for `O=C(c1cc2ccccc2[nH]1)N1CCc2[nH]nc(OC3CCCC3)c2C1` [Example 203, 2-[3-(cyclopentyloxy)-1H,4H,5H,6H,7H-pyrazolo[4,3-c]pyridine-5-carbonyl]-1H-indole] are 5 to 10 µM, less than 1 µM and more than 10 µM.
With `COCC1(N(C)C(=O)c2n[nH]c3c2CN(C(=O)c2cc4cc(F)ccc4[nH]2)CC3)CC1` [Example 204, 5-(5-fluoro-1H-indole-2-carbonyl)-N-[1-(methoxymethyl)cyclopropyl]-N-methyl-1H,4H,5H,6H,7H-pyrazolo[4,3-c]pyridine-3-carboxamide], at HBV core protein, the IC50 is less than 5 µM. Also, in the data set with HBV, the concentration for a half-maximal effect (EC50) is less than 1 µM. For the same compound, in data set [1], the CC50 at 6 days is more than 10 µM.
In the case of `COCC1(N(C)C(=O)c2n[nH]c3c2CN(C(=O)c2cc4c(C(C)(F)F)cc(F)cc4[nH]2)CC3)CC1` [Example 205, 5-[4-(1,1-difluoroethyl)-6-fluoro-1H-indole-2-carbonyl]-N-[1-(methoxymethyl)cyclopropyl]-N-methyl-1H,4H,5H,6H,7H-pyrazolo[4,3-c]pyridine-3-carboxamide], the IC50 on HBV core protein is less than 5 µM. Further, the EC50 in the data set on HBV is less than 1 µM. Besides, the CC50 at 6 days in data set [1] is more than 10 µM.
For `[2H]C([2H])([2H])OCC1(N(C)C(=O)c2n[nH]c3c2CN(C(=O)c2cc4ccccc4[nH]2)CC3)CC1` [Example 206, 5-(1H-indole-2-carbonyl)-N-{1-[(2H3)methoxymethyl]cyclopropyl}-N-methyl-1H,4H,5H,6H,7H-pyrazolo[4,3-c]pyridine-3-carboxamide], in that order: less than 5 µM, less than 1 µM and more than 10 µM.
For the compound `CCOCC1(N(C)C(=O)c2n[nH]c3c2CN(C(=O)c2cc4ccccc4[nH]2)CC3)CC1` [Example 207, N-[1-(ethoxymethyl)cyclopropyl]-5-(1H-indole-2-carbonyl)-N-methyl-1H,4H,5H,6H,7H-pyrazolo[4,3-c]pyridine-3-carboxamide], the IC50 on HBV core protein is less than 5 µM. Besides, the concentration giving a half-maximal response (EC50) with HBV was less than 1 µM. Also, the half-maximal cytotoxic concentration (CC50) at 6 days in data set [1] is more than 10 µM.
In the case of `CC(C)OCC1(N(C)C(=O)c2n[nH]c3c2CN(C(=O)c2cc4ccccc4[nH]2)CC3)CC1` [Example 208, 5-(1H-indole-2-carbonyl)-N-methyl-N-{1-[(propan-2-yloxy)methyl]cyclopropyl}-1H,4H,5H,6H,7H-pyrazolo[4,3-c]pyridine-3-carboxamide], the IC50 at HBV core protein was less than 5 µM. In addition, the EC50 in the data set on HBV is less than 1 µM. The compound also yielded a CC50 at 6 days in data set [1] of more than 10 µM.
As for `CS(=O)(=O)c1n[nH]c2c1CN(C(=O)c1cc3ccccc3[nH]1)CC2` [Example 211, 2-{3-methanesulfonyl-1H,4H,5H,6H,7H-pyrazolo[4,3-c]pyridine-5-carbonyl}-1H-indole], the IC50 at HBV core protein is less than 5 µM. Further, the EC50 in the data set on HBV is less than 1 µM. The compound further yielded a CC50 at 6 days in data set [1] of more than 10 µM.
For `CN(C(=O)c1n[nH]c2c1CN(C(=O)c1cc3ccccc3[nH]1)CC2)C1CC1` [Example 232, N-cyclopropyl-5-(1H-indole-2-carbonyl)-N-methyl-1H,4H,5H,6H,7H-pyrazolo[4,3-c]pyridine-3-carboxamide], in that order: less than 5 µM, less than 1 µM and more than 10 µM.
On the same counts, the results for `CN(C(=O)c1n[nH]c2c1CN(C(=O)c1cc3ccccc3[nH]1)CC2)C1(CCC(=O)O)CC1` [Example 245, 3-{1-[N-methyl 5-(1H-indole-2-carbonyl)-1H,4H,5H,6H,7H-pyrazolo[4,3-c]pyridine-3-amido]cyclopropyl}propanoic acid] are 5 to 10 µM, less than 100 µM and more than 10 µM.
For `CCOC(=O)CCC1(N(C)C(=O)c2n[nH]c3c2CN(C(=O)c2cc4ccccc4[nH]2)CC3)CC1` [Example 246, ethyl 3-{1-[N-methyl 5-(1H-indole-2-carbonyl)-1H,4H,5H,6H,7H-pyrazolo[4,3-c]pyridine-3-amido]cyclopropyl}propanoate], the IC50 at HBV core protein is less than 100 µM. In the data set with HBV, the EC50 is less than 100 µM. For the same compound, in data set [1], the CC50 at 6 days is more than 10 µM.
Turning to `CN(CCC(=O)NS(=O)(=O)C1CC1)C(=O)c1[nH]nc2c1CN(C(=O)c1cc3ccccc3[nH]1)CC2` [Example 247, N-(cyclopropanesulfonyl)-3-{1-[5-(1H-indole-2-carbonyl)-2H,4H,5H,6H,7H-pyrazolo[4,3-c]pyridin-3-yl]-N-methylformamido}propanamide], at HBV core protein, the IC50 was less than 100 µM. Besides, the EC50 with HBV was less than 100 µM. In data set [1], the cytotoxic concentration (CC50) at 6 days was more than 10 µM.
For the compound `COCCC1(N(C)C(=O)c2[nH]nc3c2CN(C(=O)c2cc4ccccc4[nH]2)CC3)CC1` [Example 248, 5-(1H-indole-2-carbonyl)-N-[1-(2-methoxyethyl)cyclopropyl]-N-methyl-2H,4H,5H,6H,7H-pyrazolo[4,3-c]pyridine-3-carboxamide], the concentration for half-maximal inhibition (IC50) on HBV core protein was less than 5 µM. Further, in the data set with HBV, the EC50 is less than 1 µM. The same compound showed a CC50 at 6 days in data set [1] of more than 10 µM.
For `CN(C(=O)c1[nH]nc2c1CN(C(=O)c1cc3ccccc3[nH]1)CC2)C1(CO)COC1` [Example 249, N-[3-(hydroxymethyl)oxetan-3-yl]-5-(1H-indole-2-carbonyl)-N-methyl-2H,4H,5H,6H,7H-pyrazolo[4,3-c]pyridine-3-carboxamide], in that order: less than 5 µM, less than 1 µM and more than 10 µM.
Regarding `CN(C(=O)c1[nH]nc2c1CN(C(=O)c1cc3ccccc3[nH]1)CC2)C1(C)COC1` [Example 251, 5-(1H-indole-2-carbonyl)-N-methyl-N-(3-methyloxetan-3-yl)-2H,4H,5H,6H,7H-pyrazolo[4,3-c]pyridine-3-carboxamide], the IC50 at HBV core protein was less than 5 µM. Further, the EC50 with HBV was less than 1 µM. In addition, the 50% cytotoxic concentration (CC50) at 6 days in data set [1] was more than 10 µM.
On the same counts, the results for `CN(C(=O)c1[nH]nc2c1CN(C(=O)c1cc3ccccc3[nH]1)CC2)[C@H]1CCC[C@@H]1O` [Example 252, N-[(1S,2S)-2-hydroxycyclopentyl]-5-(1H-indole-2-carbonyl)-N-methyl-2H,4H,5H,6H,7H-pyrazolo[4,3-c]pyridine-3-carboxamide] are less than 5 µM, less than 1 µM and more than 10 µM.
As for `CN(CC1(O)CCC1)C(=O)c1n[nH]c2c1CN(C(=O)c1cc3ccccc3[nH]1)CC2` [Example 254, N-[(1-hydroxycyclobutyl)methyl]-5-(1H-indole-2-carbonyl)-N-methyl-1H,4H,5H,6H,7H-pyrazolo[4,3-c]pyridine-3-carboxamide], the IC50 at HBV core protein was less than 5 µM. For the same compound, the EC50 in the data set on HBV was less than 1 µM. The compound also registered a CC50 at 6 days in data set [1] of more than 10 µM.
For `CCOCCN(C)C(=O)c1n[nH]c2c1CN(C(=O)c1cc3ccccc3[nH]1)CC2` [Example 255, N-(2-ethoxyethyl)-5-(1H-indole-2-carbonyl)-N-methyl-1H,4H,5H,6H,7H-pyrazolo[4,3-c]pyridine-3-carboxamide], in that order: less than 5 µM, less than 1 µM and more than 10 µM.
